“And” between values parts separate entries of the source, which are not always exact repeats. Equal entries are not always repeated.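 Tested at 5 concentrations; 48 h exposure; 96-well plates; endpoints linearly interpolated, else capped at highest concentration. GI50 marks 50% less growth. TGI: total growth inhibition.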
Key:
Assay in all cases: inhibition of tumour cell growth, NCI panel, 48 h
M19-MEL melanoma = tested on: M19-MEL melanoma
DMS 114 small cell lung = tested on: DMS 114 small cell lung
DMS 273 small cell lung = tested on: DMS 273 small cell lung
KM20L2 colon = tested on: KM20L2 colon
XF 498 CNS = tested on: XF 498 CNS
HOP-18 NSCLC = tested on: HOP-18 NSCLC
DLD-1 colon = tested on: DLD-1 colon
RXF-631 renal = tested on: RXF-631 renal
MDA-N = tested on: MDA-N

| SMILES | TGI (M19-MEL melanoma) | TGI (DMS 114 small cell lung) | TGI (DMS 273 small cell lung) | TGI (KM20L2 colon) | TGI (XF 498 CNS) | TGI (HOP-18 NSCLC) | TGI (DLD-1 colon) | TGI (RXF-631 renal) | TGI (MDA-N) | GI50 (MDA-N) | GI50 (M19-MEL melanoma) | GI50 (DMS 114 small cell lung) | GI50 (DMS 273 small cell lung) | GI50 (XF 498 CNS) |
| --- | --- | --- | --- | --- | --- | --- | --- | --- | --- | --- | --- | --- | --- | --- |
| CN(C)CCNC(=O)c1c2ccccc2cc2ccccc12 | > 100 µM | > 100 µM | > 100 µM | > 100 µM | 44.8 µM | > 100 µM | > 100 µM |  |  |  |  |  |  |  |
| Cc1cccc(C(C)C)c1NC(=O)CCl | > 100 µM | 50 µM | > 100 µM | > 100 µM |  | > 100 µM | > 100 µM |  |  |  |  |  |  |  |
| CCOC(=O)C(=O)Nc1ccccc1OCC | > 100 µM | > 100 µM |  |  | > 100 µM | > 100 µM | > 100 µM |  |  |  |  |  |  |  |
| CCOC(OCC)C(CC)[Se]c1ccccc1 (stereo unspecified) | > 100 µM | 8.89 µM | 28.4 µM | 38.2 µM | > 100 µM | > 100 µM | > 100 µM | > 100 µM |  |  |  |  |  |  |
| Nc1c(C(=O)NC23CC4CC(CC(C4)C2)C3)[n+]([O-])c2ccccc2[n+]1[O-] | > 100 µM |  | > 100 µM | > 100 µM | > 100 µM | > 100 µM | > 100 µM |  |  |  |  |  |  |  |
| O=S1c2ccccc2NC(c2ccc3ccccc3c2)CC1c1ccccc1 (stereo unspecified) | 43.3 µM |  | 91.6 µM | 48.9 µM | 52.8 µM | > 100 µM | 70.1 µM |  |  |  |  |  |  |  |
| CC[C@H]1CN(C)[C@H]2Cc3c([nH]c4ccccc34)C(=O)C[C@H]1C2C(=O)OC (stereo partly specified) |  |  |  |  |  |  |  |  | > 100 µM |  |  |  |  |  |
| CN1C(=O)CCC1c1ccc2c(c1)oc(=O)n2C (stereo unspecified) | > 100 µM | > 100 µM | > 100 µM | > 100 µM | > 100 µM | > 100 µM | > 100 µM |  |  |  |  |  |  |  |
| CNc1ccc([N+](=O)[O-])c2c(NCCCN(C)C)ccnc12 | > 100 µM | > 100 µM | > 100 µM | > 100 µM | > 100 µM |  |  |  |  |  |  |  |  |  |
| CCOc1cc2c(=O)oc3c(OC)ccc4ccc(c1OC)c2c43 |  |  |  |  |  |  |  |  | > 100 µM |  |  |  |  |  |
| CCOc1ccc(NCC2CC/C(=C\c3ccc(Cl)cc3)C2=O)cc1 (stereo unspecified) | > 58.6 µM | > 58.9 µM | > 54.1 µM | > 55.8 µM | 37.1 µM | 54.6 µM | 26.6 µM |  |  |  |  |  |  |  |
| COc1ccc(OC(C)C(=O)O)c2c1CCCC2=O (stereo unspecified) | > 100 µM | > 100 µM | > 100 µM | > 100 µM | > 100 µM |  | > 100 µM |  |  |  |  |  |  |  |
| O=c1ccn(C2(CO)C=C(CO)C(O)C2O)c(=O)[nH]1 (stereo unspecified) | > 25.7 µM | > 25.7 µM | > 25.7 µM | > 25.7 µM |  | > 25.7 µM | > 25.7 µM | > 25.7 µM |  |  |  |  |  |  |
| COc1ccccc1NC(=O)C1=C(C)NC(C)=C(C(=O)Nc2ccccc2OC)C1c1cccc2ccccc12 | > 100 µM | > 100 µM | > 100 µM | > 100 µM | > 100 µM | > 100 µM | > 100 µM | > 100 µM |  |  |  |  |  |  |
| CC#CC#C/C=C1\C=CC2(OC=CC2OC(C)=O)O1 (stereo unspecified) |  | 45.6 µM | 49.1 µM | 10.2 µM | 37.7 µM |  | 34.3 µM | 33.1 µM | 30.1 µM |  |  |  |  |  |
| CC(C)C[CH2][Ge]([CH2]CC(C)C)([CH2]CC(C)C)[CH2]CC(C)C |  |  |  |  |  |  |  |  | > 100 µM | > 100 µM |  |  |  |  |
| OCC(O)COc1c(Cl)cc(Cl)cc1Cl (stereo unspecified) | > 100 µM | > 100 µM | > 100 µM | > 100 µM | > 100 µM | > 100 µM | > 100 µM | > 100 µM |  |  |  |  |  |  |
| ClC1c2ccccc2C2(c3ccccc3)OOC1(c1ccccc1)O2 (stereo unspecified) |  | 0.725 µM | 3.17 µM | 3.26 µM |  |  |  |  |  |  |  |  |  |  |
| CN(C(=O)C12C3C4C1C1C2C3C41C(O)C(C)(C)C)C(C)(C)C (stereo unspecified) | > 100 µM | > 100 µM | > 100 µM | > 100 µM | > 100 µM |  | > 100 µM | > 100 µM |  |  |  |  |  |  |

| SMILES | TGI (M19-MEL melanoma) | TGI (DMS 114 small cell lung) | TGI (DMS 273 small cell lung) | TGI (KM20L2 colon) | TGI (XF 498 CNS) | TGI (HOP-18 NSCLC) | TGI (DLD-1 colon) | TGI (RXF-631 renal) | TGI (MDA-N) | GI50 (MDA-N) | GI50 (M19-MEL melanoma) | GI50 (DMS 114 small cell lung) | GI50 (DMS 273 small cell lung) | GI50 (XF 498 CNS) |
| --- | --- | --- | --- | --- | --- | --- | --- | --- | --- | --- | --- | --- | --- | --- |
| NC(CCc1ncc(-c2ccccc2)s1)C(=O)O (stereo unspecified) |  | > 100 µM | > 100 µM |  |  | > 100 µM | > 100 µM | > 100 µM |  |  |  |  |  |  |
| Oc1ccc2ccccc2c1N=Nc1ccc(Cl)cc1 |  |  |  |  |  |  |  |  | > 100 µM |  |  |  |  |  |
| O=C1CCCC(O)=C1SC1=C(O)CCCC1=O | > 100 µM |  | > 100 µM |  |  | > 100 µM | > 100 µM | > 100 µM |  |  |  |  |  |  |
| CCCC(C)c1c(Cl)nc(Cl)nc1Cl (stereo unspecified) |  |  |  |  |  |  |  |  | 21 µM |  |  |  |  |  |
| CC(O)C(NC(=O)c1ccccc1)C(=O)N(Cc1ccccc1)Cc1ccccc1 (stereo unspecified) | > 100 µM | > 100 µM | > 100 µM | > 100 µM | > 100 µM | > 100 µM | > 100 µM | > 100 µM |  |  |  |  |  |  |
| CCCC(=O)c1ccc(=O)n(C)c1 | > 100 µM | > 100 µM | > 100 µM | > 100 µM | > 100 µM |  | > 100 µM | > 100 µM |  |  |  |  |  |  |
| Cc1cn([C@H]2C[C@H](O)[C@@H](CO)O2)c(=O)nc1N |  |  |  |  |  |  |  |  | > 100 µM |  |  |  |  |  |
| O=C1CCNC(=O)NC1 | > 100 µM | > 100 µM | > 100 µM | > 100 µM | > 100 µM | > 100 µM | > 100 µM | > 100 µM |  |  |  |  |  |  |
| N#Cc1cc([N+](=O)[O-])ccc1NC(=O)C(=O)C(C(=O)c1ccc2ccccc2c1)C1OCc2ccccc21 (stereo unspecified) | 31.6 µM | 29.7 µM |  | 42.6 µM |  |  | 54.2 µM | 37.5 µM |  |  |  |  |  |  |
| c1ccc2c(c1)Sc1ccccc1N2C1CN2CCC1CC2 (stereo unspecified) | 29.7 µM | 35.3 µM | 30.7 µM | 30.2 µM | 28.8 µM | 47.5 µM | 29.6 µM |  |  |  |  |  |  |  |
| CC(=O)OCCOCNC(=S)N/N=C(\C)c1cccs1 | > 100 µM | > 100 µM | > 100 µM | > 100 µM | > 100 µM | > 100 µM | > 100 µM |  |  |  |  |  |  |  |
| CC(C)CN1CC(C)C(=O)NC1=O (stereo unspecified) | > 100 µM | > 100 µM | > 100 µM | > 100 µM | > 100 µM |  | > 100 µM |  |  |  |  |  |  |  |
| O=C1C(Br)=C(Br)C(=O)c2ccccc21 | 29.8 µM and 21.7 µM | 34.9 µM and 6.91 µM | > 100 µM and 23.5 µM | > 100 µM and 32.1 µM | 29.7 µM and 9.41 µM | 35.5 µM | 35.2 µM and 67.5 µM | 20.1 µM | 11.4 µM |  | 16.1 µM and 6.98 µM | 17.6 µM and 1.91 µM | 49.9 µM and 9.23 µM | 15.1 µM and 2.98 µM |
| O=C(Oc1ccc2c(-c3ccccc3)c(C(=O)Nc3ccc(Cl)cc3)c(=O)oc2c1)c1ccccc1 | > 100 µM | > 100 µM | > 100 µM | > 100 µM | > 100 µM | > 100 µM | > 100 µM |  |  |  |  |  |  |  |
| C[N+](C)(C)CC(CC(=O)[O-])C1CC1 (stereo unspecified) | > 100 µM | > 100 µM | > 100 µM | > 100 µM | > 100 µM | > 100 µM |  | > 100 µM |  |  |  |  |  |  |
| C=C1CCC2C(C)(CO)C(O)CCC2(C)C1C/C=C1/CCOC1=O (stereo unspecified) | > 100 µM |  | > 100 µM | > 100 µM |  | > 100 µM | > 100 µM |  |  |  |  |  |  |  |
| O=C1/C(=C/c2ccc(Cl)cc2)CCC1CN1CCOCC1 (stereo unspecified) |  | 70.2 µM | 11.9 µM | 29.1 µM | 4.97 µM | 29.7 µM | 11.3 µM | > 62.5 µM | 18.4 µM |  |  |  |  |  |
| COC1C(CO)OC(n2c3c(Cl)cccc3c3c4c(c5c6cccc(Cl)c6[nH]c5c32)C(=O)NC4=O)C(O)C1O (stereo unspecified) | 0.898 µM | > 100 µM | 1.3 µM | > 100 µM | 0.931 µM |  | > 100 µM | 84.3 µM | 3.15 µM |  |  |  |  |  |
